Assay results reported in patent publication US11408016B2, “Amino acid dehydrogenase mutant and application in synthesis of L-glufosinate-ammonium thereof” (ZHEJIANG UNIVERSITY OF TECHNOLOGY, priority 2018, dated 2022).

Experiments:
[1] = target: T1, Pseudomonas monteilii amino acid dehydrogenase DyGDH (WP_060477601.1), original pDyGDH, SEQ ID No. 2 (Pseudomonas promysalinigenes, UniProt A0ABY6AJQ3); experiment: Kinetic parameter determination, original pDyGDH; assay type: biochemical; conditions: pH 7.4, 35° C.
T1 sequence (A0ABY6AJQ3 1-446): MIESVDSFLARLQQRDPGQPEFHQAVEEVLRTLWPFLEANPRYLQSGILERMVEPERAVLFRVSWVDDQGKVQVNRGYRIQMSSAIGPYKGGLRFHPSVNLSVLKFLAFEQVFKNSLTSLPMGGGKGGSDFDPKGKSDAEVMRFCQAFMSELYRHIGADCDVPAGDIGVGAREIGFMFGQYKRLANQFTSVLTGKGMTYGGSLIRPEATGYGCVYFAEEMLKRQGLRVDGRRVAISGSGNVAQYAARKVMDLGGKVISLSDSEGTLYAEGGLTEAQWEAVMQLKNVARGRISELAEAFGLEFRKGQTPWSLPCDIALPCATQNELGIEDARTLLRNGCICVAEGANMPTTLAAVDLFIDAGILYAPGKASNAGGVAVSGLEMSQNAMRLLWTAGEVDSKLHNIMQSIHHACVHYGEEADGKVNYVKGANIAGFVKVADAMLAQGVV
Experimental: The gene of the amino acid dehydrogenase cloned from Pseudomonas monteilii WP_060477601.1 (the nucleotide sequence is shown in SEQ ID No. 1, and the amino acid sequence is shown in SEQ ID No. 2) was used to construct the expression vector pETDEut-dygdh, then the obtained vector was transformed into E. coli to obtain the original strain E. coli BL21(DE3)/pETDEut-dygdh. […]
(§1) The reaction system was 500 μL, the pure enzyme solution collected in Example 4 was diluted 10 times with pH 7.4, 100 mM phosphate buffer, then 100 μL of the resulting solution was sampled, added with the substrate and exogenous coenzyme NADPH, pH 7.4, 100 mM phosphate buffer was taken as a reaction medium, after reacting at 35° C. and 600 rpm for 10 min, the concentration of L-glufosinate-ammonium in the reacting solution was determined by HPLC (according to Example 4).
(§2) According to the sequential mechanism of amino acid dehydrogenase's catalytic reaction, vmax, Km^A, Km^B can be calculated by dual-reciprocal graph, the results were shown in Table 4.

[2] = target: Pseudomonas monteilii amino acid dehydrogenase DyGDH variant pDyGDH-F95I-A108T-R172P-R303H (F95I/A108T/R172P/R303H of SEQ ID No. 2) (Pseudomonas promysalinigenes, UniProt A0ABY6AJQ3, A108T/F95I/R172P/R303H); experiment: Kinetic parameter determination, pDyGDH-F95I-A108T-R172P-R303H; assay type: biochemical
Experimental: The gene of the amino acid dehydrogenase cloned from Pseudomonas monteilii WP_060477601.1 (the nucleotide sequence is shown in SEQ ID No. 1, and the amino acid sequence is shown in SEQ ID No. 2) was used to construct the expression vector pETDEut-dygdh, then the obtained vector was transformed into E. coli to obtain the original strain E. coli BL21(DE3)/pETDEut-dygdh.
The mutant proteins were purified by Ni-NTA column (1.6×10 cm, Bio-Rad, the USA), and the specific operation was carried out as follows: (1) a Ni column was equilibrated with 5 column volumes of binding buffer (pH 8.0, 50 mM sodium phosphate buffer containing 0.3 M NaCl) until the baseline was steady; (2) the sample was loaded with a flow rate of 1 mL/min, the amount of the loading sample was 25-40 mg/mL calculated by the volume of the column, thereby attaching the target protein to the Ni column; (3) the column was washed with 6 column volumes of buffer A (pH 8.0, 50 mM sodium phosphate buffer containing 0.3 M NaCl and 30 mM imidazole) at a flow rate of 1 mL/min until the baseline was steady; (4) the column was washed with buffer B (pH 8.0, 50 mM sodium phosphate buffer containing 0.3 M NaCl and 500 mM imidazole) at a flow rate of 1 mL/min, the target protein was collected and dialyzed overnight in a pH 7.5, 20 mM phosphate buffer, thereby obtaining the pure enzyme; and (5) the Ni column was washed with 5 column volumes of binding buffer (pH 8.0, 50 mM sodium phosphate buffer containing 0.3 M NaCl) until the baseline was steady, and the Ni column was stored in 5 column volumes of ultrapure water containing 20% ethanol.
Kinetic parameters of the amino acid hydrogenase and its mutants were examined, 2-carbonyl-4-(hydroxymethylphosphinyl)-butyric acid was taken as substrate, the concentration was set as 2-10 mM (2, 4, 6, 8, 10 mM), the concentration of exogenous coenzyme NADPH was set as 1-5 mM (1, 2, 3, 4, 5 mM), 100 uL of pure enzyme solution was added (according to Example 4).
as §1, §2

SMILES: NC(=O)C1=CN([C@@H]2O[C@H](COP(=O)(O)OP(=O)(O)OC[C@H]3O[C@@H](n4cnc5c(N)ncnc54)[C@H](OP(=O)(O)O)[C@@H]3O)[C@@H](O)[C@H]2O)C=CC1 [NADPH]
- kcat/Km^A (NADPH) [1]: 385670 M⁻¹ s⁻¹
- kcat/Km^A (NADPH) ([2]; pH 7.4, 35° C.): 1.43823e+07 M⁻¹ s⁻¹
- catalytic efficiency on coenzyme NADPH, times higher than that of the original enzyme ([2]; versus original pDyGDH): 37.3 times

SMILES: CP(=O)(O)CCC(=O)C(=O)O [2-carbonyl-4-(hydroxymethylphosphinyl)-butyric acid]
- kcat/Km^B (2-carbonyl-4-(hydroxymethylphosphinyl)-butyric acid) [1]: 12410 M⁻¹ s⁻¹
- kcat/Km^B (2-carbonyl-4-(hydroxymethylphosphinyl)-butyric acid) ([2]; pH 7.4, 35° C.): 363100 M⁻¹ s⁻¹
- catalytic efficiency kcat/Km^B on 2-carbonyl-4-(hydroxymethylphosphinyl)-butyric acid, times higher than that of the original enzyme ([2]; versus original pDyGDH): 29.3 times
